Measured values reported in ChEMBL document CHEMBL1255360, “Daptomycin exerts bactericidal activity without lysis of Staphylococcus aureus” (2008).
≈ marks a conversion by molar mass, not a printed value. Calls of active or inactive are those of the source. The calls are words filed in the database; no cut-off is given here.

What was measured:
[1] = tested on: Staphylococcus aureus; assay: Bactericidal activity against Staphylococcus aureus ATCC 29213 assessed as altered cell morphology at 4 ug/ml after 60 mins by transmission electron microscopy; format: functional
[2] = tested on: Staphylococcus aureus; assay: Bactericidal activity against Staphylococcus aureus ATCC 29213 assessed as decrease in cell viability at MIC after 120 mins; format: functional
[3] = tested on: Staphylococcus aureus; assay: Bactericidal activity against Staphylococcus aureus ATCC 29213 assessed as membrane permeability at 4 ug/ml by ToPro3 dye based assay; format: functional, organism-based
[4] = tested on: Staphylococcus aureus; assay: Bactericidal activity against Staphylococcus aureus ATCC 29213 assessed as calcein release at 4 ug/ml; format: functional, organism-based
[5] = tested on: Staphylococcus aureus; assay: microbe, parasite or virus in culture; conditions: ATCC 29213
Description: Antimicrobial activity against Staphylococcus aureus ATCC 29213

[6] = tested on: Staphylococcus aureus; assay: Bactericidal activity against Staphylococcus aureus ATCC 29213 assessed as decrease in cell viability at 4 ug/ml within 120 mins; format: functional
[7] = tested on: Staphylococcus aureus; assay: Bactericidal activity against Staphylococcus aureus ATCC 29213 assessed as cell lysis at MIC after 120 mins; format: functional
[8] = tested on: Staphylococcus aureus; assay: Bactericidal activity against Staphylococcus aureus ATCC 29213 assessed as cell lysis at 4 ug/ml after 60 mins by transmission electron microscopy; format: functional, organism-based
[9] = tested on: Staphylococcus aureus; assay: Bactericidal activity against Staphylococcus aureus ATCC 29213 assessed as cell lysis at 4 ug/ml after 120 mins; format: functional, organism-based

| SMILES | Activity [1] | fold change (FC) [2] | Activity [3] | Activity [4] | MIC [5] | fold change (FC) [6] | Activity [7] | Activity [8] | Activity [9] |
| --- | --- | --- | --- | --- | --- | --- | --- | --- | --- |
| CCCCCCCCCC(=O)N[C@@H](Cc1c[nH]c2ccccc12)C(=O)N[C@H](CC(N)=O)C(=O)N[C@@H](CC(=O)O)C(=O)N[C@@H]1C(=O)NCC(=O)N[C@@H](CCCN)C(=O)N[C@@H](CC(=O)O)C(=O)N[C@H](C)C(=O)N[C@@H](CC(=O)O)C(=O)NCC(=O)N[C@H](CO)C(=O)N[C@@H]([C@H](C)CC(=O)O)C(=O)N[C@@H](CC(=O)c2ccccc2N)C(=O)O[C@@H]1C | >90% | 200 | inactive | inactive | 0.5 µg/mL (≈ 0.309 µM) | >1000 | 50% | inactive | inactive |
| O=C(O)c1cn(C2CC2)c2cc(N3CCNCC3)c(F)cc2c1=O | – | – | inactive | – | – | – | – | – | – |
